According to patent US5888994A, “Fluorinated Vitamin D3 analogs” (Hoffmann-La Roche Inc., priority 1997, dated 1999):

Assays:
[1] = Calcium liability (tolerance test in mice); settings: mouse, in vivo, sc, daily subcutaneous administration for 4 consecutive days, 5 day treatment period, read-out: HTD (highest tolerated dose: dose which results in zero weight gain)
Text: Profound changes in calcium homeostasis strongly affect the weight development of the animals. This parameter was used as a primary test for tolerance.
Mice (25-30 g body weight) received daily subcutaneous administrations of the vitamin D derivative for 4 consecutive days. Body weight was registered just before and at the end of a […] treatment period. The "highest tolerated dose" (HTD) is the dose which results in zero weight gain during this treatment period.

HL-60 cells = test: HL-60 cell differentiation (oxidative burst via NBT reduction); assay type: cell-based; settings: Homo sapiens, 72 h, 3 days, NBT reduction at 540 nm, mean of 3 wells, read-out: ED50 (concentration leading to 50% of maximal differentiation achieved with 100-1000 nM calcitriol)
Method: The induction of differentiation of HL-60 cells was assayed by measuring their oxidative burst potential via the reduction of NBT (Nitrobluetetrazolium).
30,000 cells/90 μl of RPMI/FCS were seeded into flat-bottomed microtiter wells. 10 μl of vitamin D derivatives diluted in complete medium were added at the same time to yield final concentrations between 10^-11 and 10^-6 M (stock solutions of 10^-2 M in ethanol were kept at -20° C. and protected from light).
Values were expressed as percent of maximal differentiation achieved with 100-1000 nM calcitriol in the same experiment.

HaCaT cells = test: Inhibition of keratinocyte proliferation (3H-thymidine uptake, HaCaT); assay type: cell-based; settings: HaCaT human keratinocyte line, 6 days of culture
Method: HaCaT cell line--The immortalized human cell line HaCaT was used. ^3 H-thymidine incorporation was measured in exponentially growing cultures after 6 days of culture in presence of the test compound.
Cell culture--HaCaT cells were cultured in Dulbecco's Modified Eagle Medium (DMEM) and Nutrient Mixture Ham's F12 (F12), 3:1 (v/v, ICN) containing 4.5 g/l glucose and supplemented with 10% fetal calf serum (Gibco, FCS), L-glutamine (Gibco, 2mM), penicillin (Gibco, 50 UI/ml), streptomycin (Gibco, 50 μg/ml), EGF (10 ng/ml), hydrocortisone (400 ng/ml), cholera toxin (8.5 ng/ml) and insulin (5 ng/ml). The cells were maintained in a humidified atmosphere containing 5% CO2 and 95% air and passaged every 3-4 days.
Inhibition of ^3 H-thymidine uptake--HaCaT cells (250 cells in complete culture medium) were seeded into 96-well culture dishes and incubated at 37° C. with 5% CO2 and 95% air for 6 days. Inhibitors, dissolved at 10× concentration in 1% ethanol, were added immediately at the beginning of the assay. ^3 H-thymidine (5 Ci/mmol, Amersham) was added at a concentration of 1 μCi/well and cells were pulse-labelled for the last 6 hours of the growth period. Cells were then trypsinized for 10 minutes at 37° C. under a vigorous agitation and harvested on to a 96-well GF/C filter plate (Uni Filter, Packard) using a Micro Mate 196 cell harvester (Packard). After drying at 40° C. under vacuum for 20-30 minutes, 2 μl of Micro Scint 0 scintillator (Packard) were added and the radioactivity bound to the filters was counted on a TOP COUNT (Packard).

sebaceous cells = test: Inhibition of human sebocyte proliferation in vitro; assay type: cell-based; settings: tested at 10^-6, 10^-7 and 10^-8 M, vs vehicle-treated culture, read-out: ED50 (amount of compound necessary to inhibit the proliferation of sebaceous cells by 50%)
Method: Sebaceous cells were isolated from adult human sebaceous glands by a combination of enzymatic and mechanical methods (Doran et al., Characterization of Human Cells In Vitro, J. Invest. Dermatol. 96:34-8 (1991)). The cells were cultured in Iscove's medium containing 10% fetal calf serum and 4 μg/ml dexamethasone on a layer of growth-arrested 3T3 mouse fibroblasts. Cells were plated in medium without the test compound and then given test compound in fresh medium, containing the test compound, every 48 hours. On the day of harvesting, the cultures were rinsed with 0.03% EDTA in PBS, to remove only the 3T3 fibroblasts, followed by incubation in 0.05% trypsin/0.03% EDTA. The cells were suspended, mixed vigorously to prepare a single cell suspension and counted in a hemocytometer.
Stock solutions of compounds were made up as 10^-2 M solutions in degassed 100% ethanol and stored at -20° C. in the dark. During experimental use, the solutions, which have been aliquoted, were brought to room temperature and used by diluting directly into complete medium to appropriate concentration.
The compounds were tested for the inhibition of proliferation of sebaceous cell growth in vitro at 10^-6, 10^-7 and 10^-8 M.
The results are summarized in Table III below as the amount of compound necessary to inhibit the proliferation of sebaceous cells by 50% (ED50) in nM as compared to a vehicle-treated culture.

Compound	MTD at 120 h [1] [mg/kg]	EC50 (HL-60 cells) [nM]	IC50 (HaCaT cells) [nM]	IC50 (sebaceous cells) [nM]
C[C@H](CC#CC(C)(O)C(F)(F)F)C1=CC[C@H]2/C(=C/C=C3C[C@@H](O)C[C@H](O)C3)CCC[C@]12C (stereo partly drawn) [1,25(R,S)-Dihydroxy-16-ene-23-yne-26-trifluoro-19-nor-cholecalciferol]	0.002	0.37	5.1	–
C=C1/C(=C\C=C2/CCC[C@]3(C)C([C@H](C)CC#CC(C)(O)C(F)(F)F)=CC[C@@H]23)C[C@@H](O)C[C@@H]1O (stereo partly drawn) [1,25(R,S)-Dihydroxy-16-ene-23-yne-26-trifluoro-cholecalciferol]	0.001	0.15	10	1
C=C1/C(=C\C=C2/CCC[C@]3(C)[C@@H]([C@H](C)CCCC(C)(C)O)CC[C@@H]23)C[C@@H](O)C[C@@H]1O [1,25-Dihydroxycholecalciferol, reference compound]	–	8	–	–
C=C1/C(=C\C=C2/CCC[C@]3(C)C([C@H](C)CC#CC(C)(O)C(F)(F)F)=CC[C@@H]23)C[C@@H](O)C[C@@H]1F (stereo partly drawn) [1α-fluoro-25(R,S)-hydroxy-16-ene-23-yne-26-trifluoro-cholecalciferol]	0.02	3.7	11	–
C=C1CC[C@H](O)C/C1=C/C=C1\CCC[C@]2(C)C([C@H](C)CC#CC(C)(O)C(F)(F)F)=CC[C@@H]12 (stereo partly drawn) [25(R,S)-Hydroxy-16-ene-23-yne-26-trifluoro-cholecalciferol]	0.6	160	650	–
